This is an account of results in patent US12290513B2, “Therapeutic methods and compositions for treating movement disorders” (Vima Therapeutics, Inc., priority 2023, dated 2025).

Where two headings read alike, the source gives them in different places.

Data set [1] can be described thus: Whole blood stability, human. The protocol: Procedures for blood Stability. • A. 398 μL of blood from each species was added to an incubation plate, which was pre-warmed at 37C for 15 minutes. • B. After the pre-incubation, 2 μL of working solution (test compounds or control compounds) was spiked to 398 μL of blood to reach a final concentration of 1 μM for test compounds and 5 μM for control compounds. The final concentration of organic solvents is 0.5%. The assays were performed in duplicate. • C. The reaction samples were incubated at 37C. • D. Aliquots of 50 μL were taken from the reaction samples at 0, 15, 30, 60 and 120 minutes. The reaction was stopped by the addition of 50 μL ultrapure water and 400 μL cold acetonitrile. • E. All samples were vortexed for 10 minutes, followed by centrifugation at 3,220 g for 40 minutes to precipitate proteins. 100 μL of the supernatant was then transferred to a new plate. The supernatant was diluted with ultrapure water as needed for detection by LC-MS/MS. Sample Analysis
Samples were analyzed by LC-MS/MS to measure the concentration of the test compounds.
(§1) All calculations were carried out using Microsoft Excel and according to standard analysis methods that are known in the art.

Data set [2] can be described thus: Hepatocyte stability, human. The protocol: (§2) • 1. 10 mM stock solutions of test compounds and positive control compound were prepared in appropriate solvent (DMSO). • 2. In separate conical tubes, 10 mM test compound and positive controls were diluted to 100 μM by combining 198 μL of 50% acetonitrile/50% water and 2 μL of 10 mM stock. Preparation of Hepatocytes • 1. Incubation medium (William's E Medium supplemented with GlutaMAX) and hepatocyte thawing medium were placed in a 37C water bath and warmed for at least 15 minutes prior to use. • 2. A vial of cryopreserved hepatocytes was thawed by placing the vial in a 37C water bath and gently shaken for 2 minutes. After thawing was completed, the vial was cleaned with 70% ethanol and transferred to a biosafety cabinet. • 3. Using wide-bore pipette tips, hepatocytes were transferred into a 50 mL conical tube containing thawing medium. The 50 mL conical tube was placed into a centrifuge and spun at 100 g for 10 minutes. […] Using AO/PI Staining, cells were counted to determine the viable cell density. Cells were diluted with incubation medium to a working cell density of 0.5×10^6 viable cells/mL. Procedure for Stability Determination • 1. 198 μL of hepatocytes were pipetted into each well of a 96-well non-coated plate. The plate was placed in the incubator to allow the hepatocytes to warm for 10 minutes. • 2. 2 μL of the 100 μM test compound or positive control was pipetted into respective wells of the 96-well non-coated plate to start the reaction. The plate was returned to the incubator for the designed time points. • 3. The contents of the wells were removed in 25 μL aliquots at time points of 0.5, 15, 30, 60, 90 and 120 minutes. The aliquots were then mixed with 6 volumes (150 μL) of acetonitrile containing an internal standard, IS (100 nM alprazolam, 200 nM caffeine and 100 nM tolbutamide), to terminate the reaction. Samples were vortexed for 5 minutes and centrifuged for 45 minutes at 3,220 g. Aliquots of 100 μL of supernatant were diluted with 100 μL ultra-pure water, and the mixture was used for LC/MS/MS analysis. All incubations were performed in duplicate. Data Analysis
as §1

Data set [3] can be described thus: Hepatocyte stability, dog. The protocol:
as §2, §1

Data set [4] can be described thus: Hepatocyte stability, rat. The protocol: as §2, §1
The conditions of data set [5]: human, in vivo. The protocol:
Experimental Design: All of the data collected in this example were run in a double-blind, randomized, placebo controlled setting of normal healthy adults. […] Dizziness was measured by the visual analog scale (VAS), a common clinical measure of dizziness.

How the values of data set [6] were obtained:
The resulting metabolites were analyzed by liquid chromatography-mass spectrometry, and metabolite peaks were detected and measured.

The nature of another data set: in vitro. Conditions: mouse, liver microsomes.
Another data set has as its target CYP2E1 (Homo sapiens, UniProt P05181). In words: Incubation with recombinant CYP2E1. The conditions noted are these: for t1/2: unit not given.

CYP2E1, sequence (P05181 whole entry): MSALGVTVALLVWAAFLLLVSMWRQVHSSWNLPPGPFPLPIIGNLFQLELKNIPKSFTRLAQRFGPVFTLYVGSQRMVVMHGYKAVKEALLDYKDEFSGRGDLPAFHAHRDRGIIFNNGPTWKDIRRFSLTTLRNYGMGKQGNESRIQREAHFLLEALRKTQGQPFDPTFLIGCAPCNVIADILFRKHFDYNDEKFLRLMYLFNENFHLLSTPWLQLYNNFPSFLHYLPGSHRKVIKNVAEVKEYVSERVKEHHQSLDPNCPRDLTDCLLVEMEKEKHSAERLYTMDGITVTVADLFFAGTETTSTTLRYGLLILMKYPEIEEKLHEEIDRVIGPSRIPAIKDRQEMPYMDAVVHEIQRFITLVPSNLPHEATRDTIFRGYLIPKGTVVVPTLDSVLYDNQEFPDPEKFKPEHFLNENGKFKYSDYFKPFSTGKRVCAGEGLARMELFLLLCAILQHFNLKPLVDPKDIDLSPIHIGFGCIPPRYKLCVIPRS

In the case of `O[C@@](CCN1CCCCC1)(c1ccccc1)C1CCCCC1` [(R)-THP, (R)-trihexyphenidyl], in data set [1] (human whole blood, 37C), the “Remaining Percentages (%) 0 min” value was found to be 100.00% and the t1/2 result was “∞”. In data set [2] (cryopreserved hepatocytes), this molecule yielded a CLint scaled at 1 μM of 55.7 mL/min/kg, a half-life at 1 μM of 63.3 min and a hepatocyte CLint at 1 μM of 21.9 µL/min/1e6 cells. Besides, in data set [3] (cryopreserved hepatocytes), the CLint scaled at 1 μM turned out to be 187 mL/min/kg, the half-life at 1 μM was 40.2 min and the hepatocyte CLint at 1 μM turned out to be 34.5 µL/min/1e6 cells. In data set [4] (cryopreserved hepatocytes), the intrinsic metabolic clearance (CLint scaled) at 1 μM was found to be 4420 mL/min/kg, the half-life at 1 μM came out at 1.47 min and the hepatocyte CLint at 1 μM came out at 945 µL/min/1e6 cells. Besides, in data set [5], the “share of exposure that is R-THP” value was 85%. Further, the metabolites detected entry in data set [6] is “no (R)-THP metabolites were present at a significant level above parent molecule”. In “in vitro”, the intrinsic metabolic clearance (CLint scaled) worked out at 2030 mL/min/kg, the half-life at 1 μM was 2.82 min and the intrinsic clearance (microsomal CLint) at 1 μM was 492 µL/min/mg. For the same molecule, on CYP2E1, the CLint was 0.00 µL/min/pmol and the t1/2 entry is reported as “∞”.

Consider `O[C@](CCN1CCCCC1)(c1ccccc1)C1CCCCC1` [(S)-THP, (S)-trihexyphenidyl], for which the metabolites detected entry in data set [6] (human) was “two metabolites 18 and 19 were detected at substantial levels”. Besides, in “in vitro”, the CLint scaled was 1030 mL/min/kg, the half-life at 1 μM was determined as 5.56 min and the intrinsic clearance (microsomal CLint) at 1 μM was found to be 249 µL/min/mg. On CYP2E1, the CLint was 0.00 µL/min/pmol and the t1/2 entry was “∞”.

With `C[C@@H](C[N+](C)(C)C)OC(N)=O.[Cl-]` [(S)-BTC, (S)-bethanechol], the “Remaining Percentages (%) 0 min” value in data set [1] (human whole blood, 37C) is 100.00%. Also, the t1/2 entry in data set [1] (human, blood) was “∞”. Further, the “Predicted Hepatic CLH” value in data set [2] (hepatocytes), in data set [3] (hepatocytes) and in data set [4] (hepatocytes) was 0 mL/min/kg throughout. Also, the “in vitro t1/2” value in data set [2] (hepatocytes), in data set [3] (hepatocytes) and in data set [4] (hepatocytes) was “∞” in each case.
